From patent US6844151B1, “Methods for production of arrays with modified oligonucleotide and polynucleotide compositions” (Oligos Etc. Inc., priority 1999, dated 2005)
[pOEt] = p-ethoxy (ethyl phosphotriester) internucleotide linkage

Key:
[1] = test system: Regular RNA 20-mer oligonucleotide SEQ ID NO:1; assay: Tm of 20-mer duplexes, modified SEQ ID NO:2 strand bound to Regular RNA SEQ ID NO:1; format: binding; conditions: duplex with Regular RNA SEQ ID NO:1; 4 μM each; 50 mM NaCl, 10 mM PO4 buffer, pH 7.4
Description: (§1) The stability of duplexes having 2′-substituted nucleotides versus duplexes without such modification was tested by examining the Tm of these complexes. 4 μM each of 20-mer oligonucleotide (5′-ggt ggt tcc tcc tca gtc gg-3′; SEQ ID NO:1) and its complement (5′- ccg act gag aag gaa cca cc-3;SEQ ID NO:2) were bound in a solution of 50 mM NaCl, 10 mM PO4 buffer, pH 7.4. Each of the nucleotides of the oligonucleotide had the same 2′ group. Following binding, the melting temperature was determined as described. (See L. L. Cummins et al., Nucleic Acids Research 23:2019-2024 (1995).

[2] = test system: Regular DNA 20-mer oligonucleotide SEQ ID NO:1; assay: Tm of 20-mer duplexes, modified SEQ ID NO:2 strand bound to Regular DNA SEQ ID NO:1; format: binding; conditions: duplex with Regular DNA SEQ ID NO:1; 4 μM each; 50 mM NaCl, 10 mM PO4 buffer, pH 7.4
Description: as §1

| Substance | Tm [1] | Tm [2] |
| --- | --- | --- |
| 2′-O-methyl: SEQ ID NO:2 20-mer, every nucleotide with 2′-O-methyl group (CCGACTGAGAAGGAACCACC; all 2'-O-methyl, backbone and T or U not given here) | 79 °C | – |
| Regular DNA: unmodified DNA 20-mer, SEQ ID NO:2 (5′-ccg act gag aag gaa cca cc-3′) (CCGACTGAGAAGGAACCACC; DNA, backbone not given here) [reference compound] | 66 °C | – |
| p-ethoxy 2′-O-methyl: SEQ ID NO:2 20-mer as p-ethoxy 2′-O-methyl (CCGACTGAGAAGGAACCACC; all 2'-O-methyl, all [pOEt], T or U not given here) | 71 °C | – |
| p-ethoxy DNA: SEQ ID NO:2 20-mer as p-ethoxy DNA (CCGACTGAGAAGGAACCACC; DNA, all [pOEt], methylation of C not given here) | – | 55 °C |
| p-ethoxy RNA: SEQ ID NO:2 20-mer as p-ethoxy RNA (CCGACTGAGAAGGAACCACC; RNA, all [pOEt], T or U not given here) | 56 °C | – |
